Laboratory results reported in US7855177B1, “Methods and kits for preventing hypoglycemia” (Cebix Inc., priority 2009, dated 2010).

Tested on: type 1 diabetes patients with peripheral neuropathy
Experiment: Phase II trial: clinical laboratory evaluation (hematology, blood chemistry, urinalysis)
Format: in vivo, human
Conditions: following the study treatment
Description: Hematology: hemoglobin, hematocrit, mean cell volume, leukocytes, platelets, differential count
Blood chemistry: sodium, potassium, C-reactive protein (CRP), alanine transaminase, aspartate transaminase, serum creatinine, albumin
Urinanalysis: protein, blood, nitrite
Before starting the study, the investigator supplied the Sponsor with a list of the normal laboratory ranges and units of measurement for the laboratory variables to be determined during the study at the site. All abnormal laboratory (those out of the normal range) values required comments on the CRF, regardless of the clinical significance: […]

Structure (SMILES): CC(C)C[C@H](NC(=O)[C@H](C)NC(=O)[C@H](CC(C)C)NC(=O)[C@@H]1CCCN1C(=O)[C@H](CCC(N)=O)NC(=O)[C@H](CC(C)C)NC(=O)[C@H](CO)NC(=O)CNC(=O)[C@H](C)NC(=O)CNC(=O)[C@@H]1CCCN1C(=O)CNC(=O)CNC(=O)CNC(=O)[C@H](CC(C)C)NC(=O)[C@H](CCC(=O)O)NC(=O)[C@@H](NC(=O)[C@H](CCC(N)=O)NC(=O)CNC(=O)[C@@H](NC(=O)[C@H](CCC(N)=O)NC(=O)[C@H](CC(C)C)NC(=O)[C@H](CC(=O)O)NC(=O)[C@H](CCC(=O)O)NC(=O)[C@H](C)NC(=O)[C@@H](N)CCC(=O)O)C(C)C)C(C)C)C(=O)N[C@@H](CCC(=O)O)C(=O)NCC(=O)N[C@@H](CO)C(=O)N[C@@H](CC(C)C)C(=O)N[C@@H](CCC(N)=O)C(=O)O [C-peptide]
- changes in laboratory variables: no significant changes in any of the variables
